# Measurements taken from PubChem BioAssay AID1845204 (Molecular Pharmacology Branch, DTP, NCI, 2023).
# Test system: HSSY-II tumor spheroid viability
# Experiment: Anticancer human tumor HSSY-II cell line growth inhibition;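 also: spheroids exposed to compounds for seven days before reading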;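 as to viability, T/C: percent of DMSO vehicle control viability so 100% = untreated level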
# Conditions: spheroids with HUVEC and MSC; for IC50: curve of first compound; for viability, T/C: stronger effect = lower value
# Excerpt: Multicellular complex tumor spheroid response to DNA repair inhibitors in combination with DNA-damaging drugs
# This study explores the anticancer activities of DNA-damaging drugs and inhibitors of DNA damage repair, both as single agents and in combinations. Complex tumor spheroids comprised of malignant cells, endothelial cells and mesenchymal stem cells served as an in vitro model for human solid tumors. This model system incorporates physiologically relevant features and patient-derived or established malignant cell lines with clinically relevant genetic alterations from many tumor types. Twenty-six patient-derived or established malignant cell lines were evaluated representing sarcoma, melanoma, small cell lung cancer (SCLC), non-small cell lung cancer (NSCLC), as well as bladder, ovarian and pancreatic cancers. The concentration ranges selected for each drug and investigational agent were based upon clinically achievable concentrations if the clinical Cmax of the agent was known.
# Compounds. The drugs and compounds olaparib (NSC753686), talazoparib (NSC767125), berzosertib (NSC777718), elimusertib (NSC800525), nedisertib (NSC802822), VX-984 (NSC792969), AZD-1390 (NSC803789), temozolomide (NSC362856), topotecan (NSC609699), trabectedin (NSC813783), staurosporine (NSC755774), and gemcitabine (NSC613327) were obtained from the National Cancer Institute (NCI) Developmental Therapeutics Program Chemical Repository. The FDA-approved anticancer drug set is available from the Developmental Therapeutics Program at https://dtp.cancer.gov/organization/dscb/obtaining/available_plates.htm. […] The stock solutions were prepared in dimethyl sulfoxide (DMSO, Sigma-Aldrich, St. Louis, MO, cat. D2650) at 400-fold the tested concentration and stored at -70 degrees C. Prior to their use, the stock solutions were diluted in fresh medium and the final DMSO concentration in the assay was 0.25% (v/v). All drugs and investigational agents were tested over a range starting from a high concentration at or near the clinical Cmax and decreasing in half-log increments. If the clinical Cmax for an agent had not been determined, the highest concentration tested was 10 microM.
# Cell Lines. The patient-derived cancer cell (PDC) lines: 156681-154-R-J1-PDC, 283228-195-R-J1-PDC, 287954-098-R-J1-PDC, 292921-168-R-J2-PDC, 349418-098-R-PDC, 425362-245-T-J1-PDC, 556581-035-R-J1-PDC, and BL0293-F563-PDC were received from the NCI Patient-Derived Models Repository (PDMR, https://pdmr.cancer.gov). The established cell lines HS-SY-2 (RRID:CVCL_8719), MPNST, and SYO-1 (RRID:CVCL_7146) were obtained from the Sloan Kettering Institute. The alveolar soft parts sarcoma cell line ASPS-1 (RRID:CVCL_S738) was established at the NCI and grown from internal seed stocks. The following established cell lines were purchased from the American Type Culture Collection (ATCC, Manassas, VA): G-401 (ATCC, cat. CRL-1441, RRID:CVCL_0270), SW982 (ATCC, cat. HTB-93, RRID:CVCL_1734), VA-ES-BJ (ATCC, cat. CRL-2138, RRID:CVCL_1785), NCI-H719 (ATCC, cat. CRL-5837, RRID:CVCL_1582), NCI-H196 (ATCC, cat. CRL-5823, RRID:CVCL_1509), NCI-H841 (ATCC, cat. CRL-5845, RRID:CVCL_1595), NCI-H1618 (ATCC, cat. CRL-5879, RRID:CVCL_1480), NCI-H1876 (ATCC, cat. CRL-5902, RRID:CVCL_1503), DMS 114 (ATCC, cat. CRL-2066; RRID:CVCL_1174), NCI-H211 (ATCC, cat. CRL-5824; RRID:CVCL_1529), and SW 1271 (ATCC, cat. CRL-2177, RRID:CVCL_1716). The small cell lung cancer cell line COR-L88 was purchased from Sigma-Aldrich (cat. 92031917-1VL, RRID:CVCL_1141). The non-small cell lung cancer cell lines NCI-H226 (RRID:CVCL_1544) and NCI-H322M (RRID:CVCL_1557) were established at the NCI and grown from internal seed stocks. Pooled donor human umbilical vein endothelial cells (HUVEC, Lonza, cat. CC-2519) and human mesenchymal stem cells (hMSC, Lonza, cat. PT-2501) were purchased from Lonza (Walkersville, MD).
# Cell Culture. All cells were maintained in an incubator at 37 degrees C and 5% CO2 with 95% humidity. […]
smiles,measurement,setting,value
Cc1cc(C)c(CNC(=O)c2cc(-c3ccc(CN4CCOCC4)cc3)cc3c2cnn3C2CCCC2)c(=O)[nH]1 + CC[C@@]1(O)C(=O)OCc2c1cc1n(c2=O)Cc2cc3c(CN(C)C)c(O)ccc3nc2-1,IC50,second compound 0.003 µM,> 10 µM
same,IC50,second compound 0.00949 µM,< 0.0316 µM
same,IC50,second compound 0.03 µM,< 0.0316 µM
same,IC50,second compound 0.0949 µM,< 0.0316 µM
same,IC50,second compound 0.3 µM,< 0.0316 µM
same,"viability, T/C","second compound 0.003 µM, first compound 0.0316 µM",79.2%
same,"viability, T/C","second compound 0.003 µM, first compound 0.1 µM",81%
same,"viability, T/C","second compound 0.003 µM, first compound 0.316 µM",81.3%
same,"viability, T/C","second compound 0.003 µM, first compound 1 µM",81.9%
same,"viability, T/C","second compound 0.003 µM, first compound 3.16 µM",79.1%
same,"viability, T/C","second compound 0.003 µM, first compound 10 µM",64%
same,"viability, T/C","second compound 0.00949 µM, first compound 0.0316 µM",39.4%
same,"viability, T/C","second compound 0.00949 µM, first compound 0.1 µM",40.1%
same,"viability, T/C","second compound 0.00949 µM, first compound 0.316 µM",42.9%
same,"viability, T/C","second compound 0.00949 µM, first compound 1 µM",47.4%
same,"viability, T/C","second compound 0.00949 µM, first compound 3.16 µM",38%
same,"viability, T/C","second compound 0.00949 µM, first compound 10 µM",49.7%
same,"viability, T/C","second compound 0.03 µM, first compound 0.0316 µM",6.06%
same,"viability, T/C","second compound 0.03 µM, first compound 0.1 µM",7.28%
same,"viability, T/C","second compound 0.03 µM, first compound 0.316 µM",7.77%
same,"viability, T/C","second compound 0.03 µM, first compound 1 µM",9.15%
same,"viability, T/C","second compound 0.03 µM, first compound 3.16 µM",9.78%
same,"viability, T/C","second compound 0.03 µM, first compound 10 µM",11.9%
same,"viability, T/C","second compound 0.0949 µM, first compound 0.0316 µM",6.68%
same,"viability, T/C","second compound 0.0949 µM, first compound 0.1 µM",11.9%
same,"viability, T/C","second compound 0.0949 µM, first compound 0.316 µM",7.28%
same,"viability, T/C","second compound 0.0949 µM, first compound 1 µM",7.31%
same,"viability, T/C","second compound 0.0949 µM, first compound 3.16 µM",8.02%
same,"viability, T/C","second compound 0.0949 µM, first compound 10 µM",9.19%
same,"viability, T/C","second compound 0.3 µM, first compound 0.0316 µM",4.56%
same,"viability, T/C","second compound 0.3 µM, first compound 0.1 µM",4.19%
same,"viability, T/C","second compound 0.3 µM, first compound 0.316 µM",4.75%
same,"viability, T/C","second compound 0.3 µM, first compound 1 µM",5.11%
same,"viability, T/C","second compound 0.3 µM, first compound 3.16 µM",6.37%
same,"viability, T/C","second compound 0.3 µM, first compound 10 µM",7.28%
